In publication PMC8131363 (Scientific Reports, 2021):
Where two headings read alike, the source gives them in different places.

Key:
cCaSR [1] = biological target: T1, cCaSR (Felis catus, UniProt C7FF08)
T1 sequence (C7FF08 1-1081): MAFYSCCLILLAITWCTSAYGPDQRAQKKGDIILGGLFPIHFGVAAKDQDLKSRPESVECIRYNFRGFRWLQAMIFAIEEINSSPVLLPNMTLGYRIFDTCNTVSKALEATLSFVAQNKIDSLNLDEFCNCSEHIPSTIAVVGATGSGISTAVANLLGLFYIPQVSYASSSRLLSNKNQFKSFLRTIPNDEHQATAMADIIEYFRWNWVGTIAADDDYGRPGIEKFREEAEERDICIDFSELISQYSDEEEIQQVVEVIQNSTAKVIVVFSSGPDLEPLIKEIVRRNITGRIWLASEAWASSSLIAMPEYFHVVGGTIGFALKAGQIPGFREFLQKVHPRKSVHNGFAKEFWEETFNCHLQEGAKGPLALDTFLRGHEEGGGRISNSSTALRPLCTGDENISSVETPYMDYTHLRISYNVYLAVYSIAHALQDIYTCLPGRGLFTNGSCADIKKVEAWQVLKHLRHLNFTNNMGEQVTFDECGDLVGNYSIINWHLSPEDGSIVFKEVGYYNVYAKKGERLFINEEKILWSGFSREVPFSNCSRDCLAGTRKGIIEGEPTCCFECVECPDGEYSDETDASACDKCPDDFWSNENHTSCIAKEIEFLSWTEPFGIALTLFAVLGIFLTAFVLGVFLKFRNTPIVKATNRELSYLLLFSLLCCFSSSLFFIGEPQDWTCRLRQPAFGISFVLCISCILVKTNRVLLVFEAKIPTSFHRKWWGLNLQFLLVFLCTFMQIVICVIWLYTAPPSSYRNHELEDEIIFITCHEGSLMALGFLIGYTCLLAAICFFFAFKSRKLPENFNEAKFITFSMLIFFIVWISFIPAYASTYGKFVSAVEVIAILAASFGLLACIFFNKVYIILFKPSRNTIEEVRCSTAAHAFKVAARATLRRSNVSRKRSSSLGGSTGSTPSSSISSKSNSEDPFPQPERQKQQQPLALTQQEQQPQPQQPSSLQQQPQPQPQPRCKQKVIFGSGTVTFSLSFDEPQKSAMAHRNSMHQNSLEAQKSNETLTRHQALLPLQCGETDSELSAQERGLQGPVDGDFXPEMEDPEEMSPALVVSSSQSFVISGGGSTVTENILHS

cCaSR [2] = biological target: T1, cCaSR; experiment: cCaSR PAM luminescence assay, double injection with 0.5 mM CaCl2, HEK293/T-REx/natClytin-cCaSR; conditions: Supplementary Table I, PAM assay, dash = no activity
cCaSR [3] = biological target: T1, cCaSR; experiment: cell-based
[4] = GSH at 2.5 mM
[5] = read-out: cCaSR activity, agonist assay, stable inducible cCaSR line, at least three wells
[6] = read-out: cCaSR stable EC50, stably expressed cCaSR, Fig. 6b, > 3 mM = maximal response not reached

Row | EC50 (cCaSR [1]; [5]) [µM] | EC50 (cCaSR [1]; [6]) [µM] | EC50 PAM (M) (cCaSR [2]) | EC50 (cCaSR [1]; agonist assay, stable inducible cCaSR line, > 0.01 M = maximal response not reached) [µM] | EC50 (cCaSR [1]; read-out: EC50 Ago, Supplementary Table I, agonist assay, > 0.01 M = maximal response not reached) [µM] | EC50 (cCaSR [3]; EC50 (M), agonist assay, stable inducible cCaSR line, > 0.01 M = maximal response not reached) [M] | EC50 (cCaSR [3]; EC50 Ago (M), Supplementary Table I, agonist assay, > 0.01 M = maximal response not reached) [M] | EC50 (cCaSR [3]; cCaSR activity, agonist assay, stable inducible cCaSR line, at least three wells) [M] | EC50 (cCaSR [3]; cCaSR stable EC50(mM), stably expressed cCaSR, Fig. 6b, > 3 mM = maximal response not reached) [M] | pH of solution [4] | Compound
1 | > 10000 | > 3000 | - |  |  |  |  |  |  |  | [Cl-].[Cl-].[Mg+2] [Mg^2+, MgCl2]
2 | 1000 to 10000 | 1470 | - | 1620 | 1620 |  |  |  |  |  | [Ca+2].[Cl-].[Cl-] [Ca^2+, CaCl2]
3 |  |  | - |  |  | 0.00639 | 0.0064 | 0.001 to 0.01 | > 0.003 | 3.48 | N[C@@H](CCC(=O)N[C@@H](CS)C(=O)NCC(=O)O)C(=O)O [Glutathione]
